Source: ChEMBL document CHEMBL4325847, “Dihydropyrazothiazole derivatives as potential MMP-2/MMP-8 inhibitors for cancer therapy” (Bioorg Med Chem Lett, 2018)

What was measured:
MCF7 [1] = experiment: Antiproliferative activity against human MCF7 cells after 48 hrs by MTT assay; type: functional, cell-based; details: MCF7, 48 h
HEK-293T = experiment: Cytotoxicity against human 293T cells by MTT assay; type: cell-based
[2] = target: 72 kDa type IV collagenase (Homo sapiens, UniProt P08253); experiment: Inhibition of recombinant human MMP-2 preincubated for 10 mins followed by Mca-PLGL-Dpa-AR-NH2 substrate addition and measured for 5 mins by fluorescence assay
72 kDa type IV collagenase, sequence (P08253 whole entry): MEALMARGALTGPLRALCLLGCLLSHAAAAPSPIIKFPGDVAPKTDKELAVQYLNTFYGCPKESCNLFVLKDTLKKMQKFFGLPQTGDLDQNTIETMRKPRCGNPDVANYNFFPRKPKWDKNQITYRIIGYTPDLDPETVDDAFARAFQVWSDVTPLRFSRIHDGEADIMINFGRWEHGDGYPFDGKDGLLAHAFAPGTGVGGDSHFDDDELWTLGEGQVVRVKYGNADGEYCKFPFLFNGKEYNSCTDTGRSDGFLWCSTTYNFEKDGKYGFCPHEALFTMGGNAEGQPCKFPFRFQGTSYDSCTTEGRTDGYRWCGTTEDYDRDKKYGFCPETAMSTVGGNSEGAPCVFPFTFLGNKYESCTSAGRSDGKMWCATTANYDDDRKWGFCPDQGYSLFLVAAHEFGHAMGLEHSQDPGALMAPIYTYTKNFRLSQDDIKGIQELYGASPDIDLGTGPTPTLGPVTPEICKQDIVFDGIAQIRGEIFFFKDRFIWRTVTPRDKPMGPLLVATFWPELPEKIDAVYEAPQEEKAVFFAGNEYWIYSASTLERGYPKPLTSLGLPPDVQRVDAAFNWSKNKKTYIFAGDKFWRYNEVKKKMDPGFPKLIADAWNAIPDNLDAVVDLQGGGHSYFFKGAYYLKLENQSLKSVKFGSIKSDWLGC

HeLa = experiment: Antiproliferative activity against human HeLa cells after 48 hrs by MTT assay; type: functional, cell-based
Neutrophil collagenase = Neutrophil collagenase (Homo sapiens, UniProt P22894); experiment: Inhibition of recombinant human MMP-8 using Mca-PLGL-Dpa-AR-NH2 as substrate preincubated for 10 mins followed by substrate addition and measured for 5 mins by fluorescence assay
Neutrophil collagenase, sequence (P22894 whole entry): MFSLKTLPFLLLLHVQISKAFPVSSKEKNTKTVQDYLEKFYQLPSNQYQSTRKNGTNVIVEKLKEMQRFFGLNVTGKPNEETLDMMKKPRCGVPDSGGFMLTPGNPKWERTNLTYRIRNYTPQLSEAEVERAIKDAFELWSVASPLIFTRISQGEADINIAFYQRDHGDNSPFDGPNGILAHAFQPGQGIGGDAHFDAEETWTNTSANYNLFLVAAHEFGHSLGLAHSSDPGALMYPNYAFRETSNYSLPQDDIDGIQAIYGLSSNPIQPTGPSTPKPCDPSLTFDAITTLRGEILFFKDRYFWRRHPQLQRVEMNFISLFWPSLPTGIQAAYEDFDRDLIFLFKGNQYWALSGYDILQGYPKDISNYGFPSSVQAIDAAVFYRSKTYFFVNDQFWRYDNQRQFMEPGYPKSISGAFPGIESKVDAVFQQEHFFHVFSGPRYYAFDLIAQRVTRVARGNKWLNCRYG

L02 = experiment: Cytotoxicity against human LO2 cells by MTT assay; type: cell-based
HepG2 = experiment: Antiproliferative activity against human HepG2 cells after 48 hrs by MTT assay; type: functional, cell-based; details: HepG2, 48 h
MCF7 [3] = experiment: Induction of apoptosis in human MCF7 cells assessed as early apoptotic cells at 32 uM after 48 hrs by Annexin V-FITC/propidium iodide staining-based flow cytometric analysis (reference value: 2.54%); type: functional
MCF7 [4] = experiment: Induction of apoptosis in human MCF7 cells after 48 hrs by Annexin V-FITC/propidium iodide staining-based flow cytometric analysis; type: functional, cell-based
MCF7 [5] = experiment: Induction of apoptosis in human MCF7 cells assessed as early apoptotic cells at 8 uM after 48 hrs by Annexin V-FITC/propidium iodide staining-based flow cytometric analysis (reference value: 2.54%); type: functional
MCF7 [6] = experiment: Induction of apoptosis in human MCF7 cells assessed as late apoptotic cells at 2 uM after 48 hrs by Annexin V-FITC/propidium iodide staining-based flow cytometric analysis (reference value: 5.33%); type: functional
MCF7 [7] = experiment: Induction of apoptosis in human MCF7 cells assessed as necrotic cells at 2 uM after 48 hrs by Annexin V-FITC/propidium iodide staining-based flow cytometric analysis (reference value: 0.343%); type: functional
MCF7 [8] = experiment: Induction of apoptosis in human MCF7 cells assessed as late apoptotic cells at 32 uM after 48 hrs by Annexin V-FITC/propidium iodide staining-based flow cytometric analysis (reference value: 5.33%); type: functional
MCF7 [9] = experiment: Induction of apoptosis in human MCF7 cells assessed as live cells at 32 uM after 48 hrs by Annexin V-FITC/propidium iodide staining-based flow cytometric analysis (reference value: 91.8%); type: functional
MCF7 [10] = experiment: Induction of apoptosis in human MCF7 cells assessed as necrotic cells at 8 uM after 48 hrs by Annexin V-FITC/propidium iodide staining-based flow cytometric analysis (reference value: 0.343%); type: functional
MCF7 [11] = experiment: Induction of apoptosis in human MCF7 cells assessed as live cells at 8 uM after 48 hrs by Annexin V-FITC/propidium iodide staining-based flow cytometric analysis (reference value: 91.8%); type: functional
MCF7 [12] = experiment: Induction of apoptosis in human MCF7 cells assessed as late apoptotic cells at 8 uM after 48 hrs by Annexin V-FITC/propidium iodide staining-based flow cytometric analysis (reference value: 5.33%); type: functional
MCF7 [13] = experiment: Induction of apoptosis in human MCF7 cells assessed as early apoptotic cells at 2 uM after 48 hrs by Annexin V-FITC/propidium iodide staining-based flow cytometric analysis (reference value: 2.54%); type: functional
MCF7 [14] = experiment: Induction of apoptosis in human MCF7 cells assessed as necrotic cells at 32 uM after 48 hrs by Annexin V-FITC/propidium iodide staining-based flow cytometric analysis (reference value: 0.343%); type: functional
MCF7 [15] = experiment: Induction of apoptosis in human MCF7 cells assessed as live cells at 2 uM after 48 hrs by Annexin V-FITC/propidium iodide staining-based flow cytometric analysis (reference value: 91.8%); type: functional

IC50 (MCF7 [1]) [µM] | IC50 ([2]; read-out: IC50) [µM] | IC50 (HeLa) [µM] | IC50 (Neutrophil collagenase) [µM] | IC50 (HepG2) [µM] | SMILES | CC50 (HEK-293T) [µM] | CC50 (L02) [µM] | further results
2.14 | 34.8 | 4.88 | 75.6 | 17.6 | Oc1ccccc1C1CC(c2ccccc2)=NN1c1nc(-c2ccc(Br)cc2)cs1 (configuration not stated) | 52.8 | 65.2 | 
2.39 | 12.9 | 18.2 | 30.5 | 23.3 | COc1ccc(C2=NN(c3nc(-c4ccccc4)cs3)C(c3ccccc3O)C2)cc1 (configuration not stated) | 64.1 | 75.2 | 
2.08 | 21.6 | 5.05 | 62.5 | 9.9 | Oc1ccccc1C1CC(c2ccccc2)=NN1c1nc(-c2ccccc2)cs1 (configuration not stated) | 55.1 | 88.3 | IC50 ([2]; read-out: pIC50 (converted)): 21.4 µM
20.1 | 16.9 | 28.1 | 36.8 | 9.52 | COc1ccc(C2=NN(c3nc(-c4ccc(Br)cc4)cs3)C(c3ccccc3O)C2)cc1 (configuration not stated) | 71.9 | > 100 | 
3.24 | 9.65 | 13.1 | 39.7 | 25 | Oc1ccccc1C1CC(c2ccc(F)cc2)=NN1c1nc(-c2ccccc2)cs1 (configuration not stated) | 50.7 | 85.6 | 
11.1 | 58.8 | 29.3 | > 100 | 12 | COc1ccc(C2=NN(c3nc(-c4ccc(C(F)(F)F)cc4)cs3)C(c3ccccc3O)C2)cc1 (configuration not stated) | 45.4 | 45.6 | IC50 ([2]; read-out: pIC50 (converted)): 57.5 µM
3.17 | 11.7 | 16.3 | 65.2 | 15.3 | COc1ccc(C2=NN(c3nc(-c4ccc(OC)cc4)cs3)C(c3ccccc3O)C2)cc1 (configuration not stated) | 63 | 49.7 | 
5.3 | 8.31 | 2.73 | 35.8 | 10.9 | COc1cccc(-c2csc(N3N=C(c4ccccc4)CC3c3ccccc3O)n2)c1 (configuration not stated) | 46.6 | 57.9 | 
2.89 | 58.4 | 11.7 | 100 | 10.5 | Oc1ccccc1C1CC(c2ccc(F)cc2)=NN1c1nc(-c2ccc(C(F)(F)F)cc2)cs1 (configuration not stated) | 34.8 | 66.1 | 
6.96 |  |  |  | 0.78 | Cc1ccc(-c2cc(C(F)(F)F)nn2-c2ccc(S(N)(=O)=O)cc2)cc1 [CELECOXIB] | 55.8 | 78.2 | 
8.01 | 16.2 | 10.8 | 60.1 | 18.4 | Oc1ccccc1C1CC(c2ccc(F)cc2)=NN1c1nc(-c2cccc(Br)c2)cs1 (configuration not stated) | 70.1 | 59.4 | 
4.42 | 14 | 13 | 48.1 | 7.55 | COc1ccc(C2=NN(c3nc(-c4cccc(Br)c4)cs3)C(c3ccccc3O)C2)cc1 (configuration not stated) | 24.5 | 68.7 | 
3.72 | 2.8 | 13.7 | 25.6 | 12.6 | COc1ccc(C2=NN(c3nc(-c4cccc(OC)c4)cs3)C(c3ccccc3O)C2)cc1 (configuration not stated) | 35.2 | 56.2 | 
1.47 | 12.3 | 2.7 | 48.8 | 15 | Oc1ccccc1C1CC(c2ccc(F)cc2)=NN1c1nc(-c2ccc(Br)cc2)cs1 (configuration not stated) | 52 | 48.2 | 
1.03 | 11.2 | 8.64 | 48.9 | 11.9 | COc1ccc(-c2csc(N3N=C(c4ccccc4)CC3c3ccccc3O)n2)cc1 (configuration not stated) | 57.1 | 72.4 | Activity (MCF7 [3]): 2.29%; Activity (MCF7 [4]): Dose-dependent effect; Activity (MCF7 [5]): 2.57%; Activity (MCF7 [6]): 22.4%; Activity (MCF7 [7]): 0.216%; Activity (MCF7 [8]): 60.9%; Activity (MCF7 [9]): 36.6%; Activity (MCF7 [10]): 0.207%; Activity (MCF7 [11]): 53.7%; Activity (MCF7 [12]): 43.6%; Activity (MCF7 [13]): 4.44%; Activity (MCF7 [14]): 0.198%; Activity (MCF7 [15]): 73%
4.56 | 10.8 | 17 | 28.2 | 18.2 | COc1ccc(-c2csc(N3N=C(c4ccc(F)cc4)CC3c3ccccc3O)n2)cc1 (configuration not stated) | 59.4 | 85.6 | 
4.01 | 6.7 | 9.73 | 36.4 | 17.8 | COc1cccc(-c2csc(N3N=C(c4ccc(F)cc4)CC3c3ccccc3O)n2)c1 (configuration not stated) | 39.1 | 43.8 | 
3.5 | 48.2 | 2.25 | > 100 | 8.85 | Oc1ccccc1C1CC(c2ccccc2)=NN1c1nc(-c2ccc(C(F)(F)F)cc2)cs1 (configuration not stated) | 25.4 | 42.8 | 
1.07 | 28.3 | 5.51 | 86.5 | 21.7 | Oc1ccccc1C1CC(c2ccccc2)=NN1c1nc(-c2cccc(Br)c2)cs1 (configuration not stated) | 41.8 | 42.3 | 

SMILES | IC50 (MCF7 [1]) [µM] | IC50 ([2]; read-out: IC50) [µM] | IC50 (HeLa) [µM] | IC50 (Neutrophil collagenase) [µM] | IC50 (HepG2) [µM] | CC50 (HEK-293T) [µM] | CC50 (L02) [µM] | further results
C[C@@]1(O)c2cccc(O)c2C(=O)C2=C(O)[C@]3(O)C(=O)C(C(N)=O)=C(O)C[C@@H]3C[C@@H]21 |  | 1.29 |  | 21.9 |  |  |  | 
